Non-standard residues stand in square brackets, D forms with d. 1Nal = N[C@@H](Cc1cccc2ccccc12)C(=O)O; 4Pal = N[C@@H](Cc1ccncc1)C(=O)O; d3Pal = N[C@H](Cc1cccnc1)C(=O)O; Aoc(2) = CCCCCC[C@H](N)C(=O)O; dOrn = NCCC[C@@H](N)C(=O)O; Orn = NCCC[C@H](N)C(=O)O
These substances were tested on HDL in human plasma (assay: pre-beta HDL ELISA assay: remodeling HDL in human plasma in vitro). Conditions: not given.
Assay type: biochemical
Protocol: First, various cyclic peptides, including the majority of compounds shown in FIG. 2, were assessed for activities for remodeling HDL in human plasma in vitro. Unlike western blot which was used to generate data shown in FIG. 2, here a pre-beta HDL ELISA assay was used to measure pre-beta HDL levels. Results from the assay are shown in Table 1, which lists the peptides in the order of their activities in remodeling HDL.

With “c[WlWwkhkh] (cyclo(WIW[dW][dK][dH][dK][dH])) [SEQ ID NO:47]” the “activity in generating pre-beta HDL (in words)” value was “excellent activities in generating plasma pre-beta HDL”.
For “c[fWwYqHhQ] (cyclo([dF]W[dW]Y[dQ]H[dH]Q); SMILES NC(=O)CC[C@@H]1NC(=O)[C@@H](Cc2c[nH]cn2)NC(=O)[C@H](Cc2c[nH]cn2)NC(=O)[C@@H](CCC(N)=O)NC(=O)[C@H](Cc2ccc(O)cc2)NC(=O)[C@@H](Cc2c[nH]c3ccccc23)NC(=O)[C@H](Cc2c[nH]c3ccccc23)NC(=O)[C@@H](Cc2ccccc2)NC1=O) [SEQ ID NO:5]”, the “activity in generating pre-beta HDL (in words)” value was “excellent activities in promoting generation of pre-beta HDL”.

Same assay, conditions: pre-beta HDL ELISA

Going from “22 (cyclo([dW][Aoc(2)][dW]S[dE]Q[dS][Orn]); SMILES CCCCCC[C@@H]1NC(=O)[C@@H](Cc2c[nH]c3ccccc23)NC(=O)[C@H](CCCN)NC(=O)[C@@H](CO)NC(=O)[C@H](CCC(N)=O)NC(=O)[C@@H](CCC(=O)O)NC(=O)[C@H](CO)NC(=O)[C@@H](Cc2c[nH]c3ccccc23)NC1=O) [compound 22]” to “24 (cyclo([dW]L[dW]H[dE]Q[dE]H); SMILES CC(C)C[C@@H]1NC(=O)[C@@H](Cc2c[nH]c3ccccc23)NC(=O)[C@H](Cc2c[nH]cn2)NC(=O)[C@@H](CCC(=O)O)NC(=O)[C@H](CCC(N)=O)NC(=O)[C@@H](CCC(=O)O)NC(=O)[C@H](Cc2c[nH]cn2)NC(=O)[C@@H](Cc2c[nH]c3ccccc23)NC1=O) [compound 24]”, the “Pre-beta HDL generated (normalized level)” value falls from 0.13 to 0.09.

Compared with “64 (cyclo([dW]F[dW]Y[dR]S[dS]H); SMILES N=C(N)NCCC[C@H]1NC(=O)[C@H](Cc2ccc(O)cc2)NC(=O)[C@@H](Cc2c[nH]c3ccccc23)NC(=O)[C@H](Cc2ccccc2)NC(=O)[C@@H](Cc2c[nH]c3ccccc23)NC(=O)[C@H](Cc2c[nH]cn2)NC(=O)[C@@H](CO)NC(=O)[C@H](CO)NC1=O) [compound 64]”, “67 (cyclo([dW][homoleucine][dW]R[dE]Q[dE]R); ring closure inferred) [compound 67]” is lower in “Pre-beta HDL generated (normalized level)” value: 0.16 for the first, 0.08 for the second.

Compared with “10 (cyclo([dW]L[dW]K[dD]Q[dD]K); SMILES CC(C)C[C@@H]1NC(=O)[C@@H](Cc2c[nH]c3ccccc23)NC(=O)[C@H](CCCCN)NC(=O)[C@@H](CC(=O)O)NC(=O)[C@H](CCC(N)=O)NC(=O)[C@@H](CC(=O)O)NC(=O)[C@H](CCCCN)NC(=O)[C@@H](Cc2c[nH]c3ccccc23)NC1=O) [compound 10]”, “71 (cyclo(WGWGW[dK]S[dOrn]); ring closure inferred) [compound 71]” is lower in “Pre-beta HDL generated (normalized level)” value: 0.12 for the first, 0.06 for the second.

Compared with “54 (cyclo([dW]L[dW]R[dE]Q[dE]R); SMILES CC(C)C[C@@H]1NC(=O)[C@@H](Cc2c[nH]c3ccccc23)NC(=O)[C@H](CCCNC(=N)N)NC(=O)[C@@H](CCC(=O)O)NC(=O)[C@H](CCC(N)=O)NC(=O)[C@@H](CCC(=O)O)NC(=O)[C@H](CCCNC(=N)N)NC(=O)[C@@H](Cc2c[nH]c3ccccc23)NC1=O) [compound 54]”, “15 (cyclo(Y[dL]W[dY]K[dH]A[dE]); SMILES CC(C)C[C@H]1NC(=O)[C@H](Cc2ccc(O)cc2)NC(=O)[C@@H](CCC(=O)O)NC(=O)[C@H](C)NC(=O)[C@@H](Cc2c[nH]cn2)NC(=O)[C@H](CCCCN)NC(=O)[C@@H](Cc2ccc(O)cc2)NC(=O)[C@H](Cc2c[nH]c3ccccc23)NC1=O) [compound 15]” is higher in “Pre-beta HDL generated (normalized level)” value: 0.46 for the first, 0.51 for the second.

Compared with “w(Nal)wReQeR (cyclo([dW][1Nal][dW]R[dE]Q[dE]R); ring closure inferred) [SEQ ID NO:28]”, “57 (cyclo([dW]L[dW]K[dS]K); SMILES CC(C)C[C@@H]1NC(=O)[C@@H](Cc2c[nH]c3ccccc23)NC(=O)[C@H](CCCCN)NC(=O)[C@@H](CO)NC(=O)[C@H](CCCCN)NC(=O)[C@@H](Cc2c[nH]c3ccccc23)NC1=O) [compound 57]” is lower in “Pre-beta HDL generated (normalized level)” value: 0.35 for the first, 0.30 for the second.

Compared with “51 (cyclo([dF]W[dW]Y[dT]R[dH]S); SMILES C[C@H](O)[C@H]1NC(=O)[C@H](Cc2ccc(O)cc2)NC(=O)[C@@H](Cc2c[nH]c3ccccc23)NC(=O)[C@H](Cc2c[nH]c3ccccc23)NC(=O)[C@@H](Cc2ccccc2)NC(=O)[C@H](CO)NC(=O)[C@@H](Cc2c[nH]cn2)NC(=O)[C@H](CCCNC(=N)N)NC1=O) [compound 51]”, “72 (cyclo([dL]W[dK]H[dS]H[dK]K); SMILES CC(C)C[C@H]1NC(=O)[C@H](CCCCN)NC(=O)[C@@H](CCCCN)NC(=O)[C@H](Cc2c[nH]cn2)NC(=O)[C@@H](CO)NC(=O)[C@H](Cc2c[nH]cn2)NC(=O)[C@@H](CCCCN)NC(=O)[C@H](Cc2c[nH]c3ccccc23)NC1=O) [compound 72]” is lower in “Pre-beta HDL generated (normalized level)” value: 1.44 for the first, 0.04 for the second.

Going from “6 (cyclo(L[dW]L[dW]L[dR]K[dE]); SMILES CC(C)C[C@@H]1NC(=O)[C@@H](Cc2c[nH]c3ccccc23)NC(=O)[C@H](CC(C)C)NC(=O)[C@@H](Cc2c[nH]c3ccccc23)NC(=O)[C@H](CC(C)C)NC(=O)[C@@H](CCC(=O)O)NC(=O)[C@H](CCCCN)NC(=O)[C@@H](CCCNC(=N)N)NC1=O) [compound 6]” to “65 (cyclo([dY]G[dW]W[dN]N[dK]N); SMILES NCCCC[C@H]1NC(=O)[C@H](CC(N)=O)NC(=O)[C@@H](CC(N)=O)NC(=O)[C@H](Cc2c[nH]c3ccccc23)NC(=O)[C@@H](Cc2c[nH]c3ccccc23)NC(=O)CNC(=O)[C@@H](Cc2ccc(O)cc2)NC(=O)[C@H](CC(N)=O)NC1=O) [compound 65]”, the “Pre-beta HDL generated (normalized level)” value falls from 0.36 to 0.11.

First: 58 (cyclo([d3Pal]L[dW]K[dS]K[dS]K); ring closure inferred) [compound 58]
Second: 61 (cyclo([dY]A[dY]L[dK]H[dK]K); SMILES CC(C)C[C@@H]1NC(=O)[C@@H](Cc2ccc(O)cc2)NC(=O)[C@H](C)NC(=O)[C@@H](Cc2ccc(O)cc2)NC(=O)[C@H](CCCCN)NC(=O)[C@@H](CCCCN)NC(=O)[C@H](Cc2c[nH]cn2)NC(=O)[C@@H](CCCCN)NC1=O) [compound 61]
The “Pre-beta HDL generated (normalized level)” value of the first is higher: 0.27 for the first, 0.19 for the second.

First: 16 (cyclo(Y[dW]E[dL]Y[dS]K[dQ]); also: 2nd residue stated as DL-residue) [compound 16]
Second: 78 (cyclo([dY]L[dW]K[dK]K); SMILES CC(C)C[C@@H]1NC(=O)[C@@H](Cc2ccc(O)cc2)NC(=O)[C@H](CCCCN)NC(=O)[C@@H](CCCCN)NC(=O)[C@H](CCCCN)NC(=O)[C@@H](Cc2c[nH]c3ccccc23)NC1=O) [compound 78]
The “Pre-beta HDL generated (normalized level)” value of the first is higher: 0.09 for the first, 0.01 for the second.

Going from “80 (cyclo([dW]L[dW]R[dD]Q[dE]K); SMILES CC(C)C[C@@H]1NC(=O)[C@@H](Cc2c[nH]c3ccccc23)NC(=O)[C@H](CCCCN)NC(=O)[C@@H](CCC(=O)O)NC(=O)[C@H](CCC(N)=O)NC(=O)[C@@H](CC(=O)O)NC(=O)[C@H](CCCNC(=N)N)NC(=O)[C@@H](Cc2c[nH]c3ccccc23)NC1=O) [compound 80]” to “12 (cyclo([dW]L[dW]H[dE]N[dE]K); SMILES CC(C)C[C@@H]1NC(=O)[C@@H](Cc2c[nH]c3ccccc23)NC(=O)[C@H](CCCCN)NC(=O)[C@@H](CCC(=O)O)NC(=O)[C@H](CC(N)=O)NC(=O)[C@@H](CCC(=O)O)NC(=O)[C@H](Cc2c[nH]cn2)NC(=O)[C@@H](Cc2c[nH]c3ccccc23)NC1=O) [compound 12]”, the “Pre-beta HDL generated (normalized level)” value rises from 0.01 to 0.07.

Going from “56 (cyclo([dF]F[dY]Y[dS]R[dK][Orn]); ring closure inferred) [compound 56]” to “47 (cyclo(WIW[dW][dK][dH][dK][dH]); SMILES CC[C@H](C)[C@@H]1NC(=O)[C@H](Cc2c[nH]c3ccccc23)NC(=O)[C@@H](Cc2c[nH]cn2)NC(=O)[C@@H](CCCCN)NC(=O)[C@@H](Cc2c[nH]cn2)NC(=O)[C@@H](CCCCN)NC(=O)[C@@H](Cc2c[nH]c3ccccc23)NC(=O)[C@H](Cc2c[nH]c3ccccc23)NC1=O) [compound 47]”, the “Pre-beta HDL generated (normalized level)” value rises from 0.31 to 0.79.

Going from “68 (cyclo([dW]W[dF]Y[dK]H[dS]S); SMILES NCCCC[C@H]1NC(=O)[C@H](Cc2ccc(O)cc2)NC(=O)[C@@H](Cc2ccccc2)NC(=O)[C@H](Cc2c[nH]c3ccccc23)NC(=O)[C@@H](Cc2c[nH]c3ccccc23)NC(=O)[C@H](CO)NC(=O)[C@@H](CO)NC(=O)[C@H](Cc2c[nH]cn2)NC1=O) [compound 68]” to “52 (cyclo([dW]F[dF]Y[dR]H[dH]S); SMILES N=C(N)NCCC[C@H]1NC(=O)[C@H](Cc2ccc(O)cc2)NC(=O)[C@@H](Cc2ccccc2)NC(=O)[C@H](Cc2ccccc2)NC(=O)[C@@H](Cc2c[nH]c3ccccc23)NC(=O)[C@H](CO)NC(=O)[C@@H](Cc2c[nH]cn2)NC(=O)[C@H](Cc2c[nH]cn2)NC1=O) [compound 52]”, the “Pre-beta HDL generated (normalized level)” value rises from 0.07 to 0.52.

Compared with “73 (cyclo(L[dW]L[dH]K[dK]E[dH]); SMILES CC(C)C[C@@H]1NC(=O)[C@@H](Cc2c[nH]c3ccccc23)NC(=O)[C@H](CC(C)C)NC(=O)[C@@H](Cc2c[nH]cn2)NC(=O)[C@H](CCC(=O)O)NC(=O)[C@@H](CCCCN)NC(=O)[C@H](CCCCN)NC(=O)[C@@H](Cc2c[nH]cn2)NC1=O) [compound 73]”, “49 (cyclo([4Pal][dW]L[dL]H[dS]K[dK]); not fully specified; printed as c[(PA)wLlHsKk]) [compound 49]” is higher in “Pre-beta HDL generated (normalized level)” value: 0.04 for the first, 0.67 for the second.

Going from “30 (cyclo([dW]L[dW]S[dE]Q[dS]K)) [compound 30]” to “62 (cyclo([dY]Y[dV]Y[dH]H); SMILES CC(C)[C@H]1NC(=O)[C@H](Cc2ccc(O)cc2)NC(=O)[C@@H](Cc2ccc(O)cc2)NC(=O)[C@H](Cc2c[nH]cn2)NC(=O)[C@@H](Cc2c[nH]cn2)NC(=O)[C@H](Cc2ccc(O)cc2)NC1=O) [compound 62]”, the “Pre-beta HDL generated (normalized level)” value rises from 0.06 to 0.17.

From patent US10092620B2, “Uses of cyclic peptides for treating and preventing atherosclerosis” (THE SCRIPPS RESEARCH INSTITUTE, priority 2013, dated 2018)
